In general, IC50 refers to the concentration at which inhibition is half-maximal. As usually defined, the EC50 is the concentration giving half of the maximal effect. A high value points to a less potent agent.

In data set [1] the target is T1, tau-tau binding: truncated tau (residues 297-390; dGA) on solid phase, full-length tau (T40) in aqueous phase (Homo sapiens, UniProt P10636).
T1 construct: truncated tau (residues 297-390; dGA); full-length tau (T40) was added in the aqueous phase
In words: In vitro assay for establishing B50 (tau-tau binding). The settings on record: concentration required to inhibit tau-tau binding by 50%; mean ± SE, number of replications in parentheses; NE = no effect when tested to 500 μM. The text has this: Briefly, a fragment of tau corresponding to the core repeat domain, which has been adsorbed to a solid phase substrate, is able to capture soluble full-length tau and bind tau with high affinity. This association confers stability against proteolytic digestion of the aggregated tau molecules.
The aqueous phase binding buffer contained 0.05% Tween-20 and 1% gelatine in phosphate-buffered saline (pH7.4).
The concentration of compound required to inhibit the tau-tau binding by 50% is referred to as the B50 value.

For a further data set, the system named is fibroblast cells (3T6). Conditions: for LD50: cell numbers after 24 hrs exposure, lactate dehydrogenase assay kit, mean ± SE, number of replications in parentheses; for RxI: therapeutic index, RxI=LD50/EC50.
Data set [2] concerns fibroblast cells (3T6) expressing full-length tau (T40) and the 12 kD PHF-core tau fragment. In words: Cell-based assay for establishing EC50 (inhibition of generation of the 12 kD tau fragment). From the text:
In essence, fibroblast cells (3T6) express full-length tau (“T40”) under control of an inducible promotor, and low constitutive levels of the PHF-core tau fragment (12 kD fragment).
This is referred to as the EC50 value.

SMILES strings stand for the structures. Structures can show the parent of a compound that is named as a salt.

T1 sequence (P10636 614-707): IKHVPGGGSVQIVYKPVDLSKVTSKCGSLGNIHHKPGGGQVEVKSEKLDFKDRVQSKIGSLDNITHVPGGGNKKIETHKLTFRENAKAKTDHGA

On to `O=[N+]([O-])[O-].c1c2c3c(c4[o+]c5c6c7c(cc5cc14)CCCN7CCC6)CCCN3CCC2` [Compound B, 2,3,6,7,12,13,16,17-Octahydro-1H,5H,11H,15H-diquinolizino[1,9-bc:1′,9′-hi]xanthylium nitrate], for which the IC50 in data set [1] was 254 ± 26.4 µM. In addition, in the data set on fibroblast cells (3T6), the LD50 is recorded as 30.8 ± 4.6 (4) μM and the RxI is 3802.
For the molecule `CCN(CC)c1cc2oc3cc(N(CC)CC)cc4oc5cc(=[N+](CC)CC)cc6oc(c1)c2c(c34)c65` [AL, 2,6,10-tris-diethylamino-4,8,12-trioxatrianguleum hexafluorophosphate], the 50% inhibitory concentration (IC50) in data set [1] was 8.5 ± 0.9 µM. Besides, in the data set with fibroblast cells (3T6), the LD50 was 8 ± 4 (6) μM and the RxI turned out to be 62. In data set [2], the response was half-maximal at 0.13 ± 0.07 µM (EC50).
For `CCN(CC)c1ccc(-c2c3ccc(=[N+](CC)CC)cc-3oc3cc(N(CC)CC)ccc23)cc1` [Compound AC], the IC50 in data set [1] was 129 ± 11.9 µM. In addition, in the data set with fibroblast cells (3T6), the LD50 is recorded as 14.5 ± 8.4 (8) μM and the RxI is 34. This molecule returned an EC50 in data set [2] of 1.43 ± 0.14 µM.
As for `CN(C)c1ccc2cc3ccc(N(C)C)cc3[s+]c2c1.[Cl-].[Cl-].[Cl-].[Zn+2]` [L, 3,6-bis(dimethylamino)thioxanthylium zinc trichloride], the IC50 in data set [1] worked out at 21.7 ± 2.7 µM. Also, in the data set on fibroblast cells (3T6), the LD50 is reported as 22 ± 8.6 (3) μM and the RxI came out at 73. The molecule also gave an EC50 in data set [2] of 0.3 µM.
Taken in the same sequence, the figures for `CCN(CC)c1ccc2nc3ccc(N(C)C)cc3nc2c1.Cl` [AM, 3-Diethylamino-7-dimethylaminophenazinium chloride] were 634 µM, 93 ± 19 (6) μM, 85 and 1.1 ± 0.24 µM.
Turning to `CCN(CC)c1ccc2c(-c3ccc([N+](=O)[O-])cc3)c3ccc(N(CC)CC)cc3[o+]c2c1.O=[N+]([O-])[O-]` [Compound AD, 3,6-Bis-diethylamino-9-(4-nitrophenyl)xanthylium nitrate], in the data set with fibroblast cells (3T6), the LD50 is 19 ± 9 (5) μM and the RxI was 54. This molecule displayed an EC50 in data set [2] of 0.35 ± 0.1 µM.
As to `CCN(CC)c1ccc2cc3ccc(N(CC)CC)cc3[s+]c2c1.[I-]` [K, 3,6-Bis(diethylamino)thioxanthylium Iodide], in data set [1], the IC50 was more than 500 µM. Also, in the data set on fibroblast cells (3T6), the LD50 is on record as 21.2 ± 12 (3) μM and the RxI was found to be 91. It took 0.23 ± 0.13 µM to reach a half-maximal effect in data set [2] (EC50).
As for `CCc1c2ccc(N(CC)CC)cc2[o+]c2cc(N(CC)CC)ccc12.[Cl-]` [Compound J, 9-Ethyl-3,6-bis-diethylamino Xanthylium Chloride], the IC50 in data set [1] was more than 500 µM. Also, in the data set on fibroblast cells (3T6), the LD50 is reported as 17 ± 3 (10) μM and the RxI was found to be 1545. In data set [2], this molecule gave an EC50 of 0.011 ± 0.006 µM.
Taken in the same sequence, the figures for `O=[N+]([O-])[O-].c1cc2cc3ccc(N4CCCC4)cc3[o+]c2cc1N1CCCC1` [Compound AH, 3,6-Bis-pyrrolidino-xanthylium nitrate] were 129 ± 15.5 µM, 121 ± 52 (12) μM, 465 and 0.26 ± 0.073 µM.
Turning to `O=[N+]([O-])[O-].c1cc2cc3ccc(N4CCOCC4)cc3[o+]c2cc1N1CCOCC1` [Compound AF, 3,6-Bis-morpholino-xanthylium nitrate], the IC50 in data set [1] is 187 ± 28.3 µM. Moreover, in the data set with fibroblast cells (3T6), the LD50 is listed as 144 ± 67 (10) μM and the RxI was determined as 7. The molecule also came in with an EC50 in data set [2] of 22 ± 4.2 µM.
Regarding `CC1(C)CCN2CCC(C)(C)c3c4c(cc1c32)C=c1cc2c3c(c1O4)C(C)(C)CC[N+]=3CCC2(C)C` [Compound AE, 1,1,7,7,11,11,17,17-Octamethyl-2,3,6,7,12,13,16,17-octahydro-1H,5H,11H,15H-diquinolizino[1,9-bc;1′,9′-hi]xanthylium nitrate], the IC50 in data set [1] came out at 324 ± 87.1 µM. In addition, in the data set with fibroblast cells (3T6), the LD50 is 21 ± 8 (7) μM and the RxI is recorded as 412. The molecule further yielded an EC50 in data set [2] of 0.051 ± 0.012 µM.
For the molecule `Cl.Cl.c1cc2c(cc1N1CCCC1)Oc1cc(N3CCCC3)ccc1C2` [Compound AJ, 3,6-Bis-pyrrolidino xanthene dihydrochloride], in data set [1], the IC50 was more than 500 µM. Also, in the data set on fibroblast cells (3T6), the LD50 is 125 ± 57 (10) μM and the RxI is given as 334. The EC50 in data set [2] was 0.37 ± 0.1 µM.
Consider `[Cl-].c1c2c3c(c4[o+]c5c6c7c(cc5cc14)CCCN7CCC6)CCCN3CCC2` [Compound A, 2,3,6,7,12,13,16,17-Octahydro-1H,5H,11H,15H-diquinolizino[1,9-bc:1′,9′-hi]xanthylium chloride], for which the IC50 in data set [1] worked out at 33.8 ± 5.2 µM. In the data set on fibroblast cells (3T6), the LD50 was 19 ± 2.7 (22) μM and the RxI is 3115. It took 0.0061 ± 0.0024 µM to reach a half-maximal effect in data set [2] (EC50).
For `CCN(CC)c1ccc2c(c1)Oc1cc(N(CC)CC)ccc1C2` [Compound H, 3,6-bis-diethylamino xanthene dihydrochloride] the same measures were more than 500 µM, 113 ± 18 (11) μM, 2093 and 0.054 ± 0.01 µM.
For `FC(F)(F)C1=c2cc3c4c(c2Oc2c1cc1c5c2CCCN5CCC1)CCC[N+]=4CCC3` [C, 8-(trifluoromethyl)-2,3,5,6,11,12,14,15-octahydro-1H,4H,10H,13H-diquinolizino[9,9a,1-bc;9′,9a′1′-hi]xanthylium perchlorate] the same measures were 461 ± 130 µM, 5.99 ± 2.6 (4) μM, 13 and 0.47 µM.
Regarding `CC[N+](CC)=c1ccc2nc3ccc(N(C)C)cc3oc-2c1` [AN, 3-Diethylamino-7-dimethylaminooxazinium perchlorate], the IC50 in data set [1] was more than 500 µM. Also, in the data set on fibroblast cells (3T6), the LD50 is listed as 167 ± 29 (6) μM and the RxI was 309. Further, the response in data set [2] was half-maximal at 0.54 ± 0.08 µM (EC50).
Turning to `CN(C)c1ccc2nc3ccc(=[N+](C)C)cc-3[nH]c2c1` [N, 3,7-Bis(dimethylamino)phenazinium chloride], in data set [1], the IC50 is 93.1 ± 17 µM. Besides, the LD50 in the data set with fibroblast cells (3T6) was 136 ± 19.3 (4) μM.
As to `O=[N+]([O-])[O-].c1cc2cc3ccc(N4CCCCC4)cc3[o+]c2cc1N1CCCCC1` [Compound AG, 3,6-Bis-piperidino-xanthylium nitrate], the IC50 in data set [1] is 257 ± 50.3 µM. In the data set with fibroblast cells (3T6), the LD50 is 13.8 ± 6.2 (8) μM and the RxI was found to be 12. The EC50 in data set [2] was 1.12 ± 0.75 µM.
Taken in the same sequence, the figures for `Cl.Cl.c1cc2c(cc1N1CCOCC1)Oc1cc(N3CCOCC3)ccc1C2` [Compound AI, 3,6-Bis-morpholino xanthene dihydrochloride] were more than 500 µM, 280 ± 121 (10) μM, 17 and 16 ± 11 µM.
For `CN(C)c1ccc2nc3ccc(=[N+](C)C)cc-3oc2c1` [O, 3,7-bis(dimethylamino)oxazinium chloride] the same measures were 190 ± 33.2 µM, 115 ± 17 (9) μM, 29 and 3.9 ± 3.5 µM.
As to `CN(C)c1ccc2nc3ccc(N(C)C)cc3[s+]c2c1` [MTC, reference compound], in data set [2], the EC50 came to 0.59 ± 0.04 µM.
In the case of `Cc1cc(N(C)C)cc2[s+]c3cc(N(C)C)cc(C)c3nc12` [DMMTC, reference compound], the IC50 in data set [1] turned out to be 3.4 ± 0.2 µM. In the data set on fibroblast cells (3T6), the LD50 is given as 2.7 ± 1.2 (6) μM and the RxI is on record as 67. Besides, a half-maximal effect in data set [2] (EC50) was put at 0.04 ± 0.004 µM.
For `Cl.Cl.c1cc2c(cc1N1CCCCC1)Oc1cc(N3CCCCC3)ccc1C2` [Compound AK, 3,6-Bis-piperidino xanthene dihydrochloride] the same measures were 284 ± 101 µM, 44 ± 26 (8) μM, 69 and 0.64 ± 0.27 µM.
